The values that follow are results of earlier work, collected in PMC12326358, “Effect of Quantitative Structural Properties and Drug Formulation in Four Cannabinoids (Cannabidiol, Cannabigerol, Cannabichromene, and Cannabinol) on Their Lymphatic Transport after Enteral Administration in Rats” (Molecular Pharmaceutics, 2025).

For data set [1] the following is noted: Beagle dogs, formulation with drug dispersed in small lipid droplets; cited from earlier work.
For data set [2] the following is noted: cited from earlier work; for log P: ref literature.
The conditions of data set [3]: cited from earlier work.

With `CC(C)(C)c1cc(C(C)(C)C)c(NC(=O)c2c[nH]c3ccccc3c2=O)cc1O` [ivacaftor, reference compound], the bioavailability increase in data set [1] is listed as 7 fold.
Consider `COc1nc(C(Cl)(Cl)Cl)c(Cl)c(OC)c1Cl` [penclomedine], for which, in data set [2], the “solubility in long-chain triglycerides” value is on record as greater than 50 mg/g; the log P (usually a log measure of how a compound divides between an organic and an aqueous phase) is listed as greater than 5. Further, the partitioning into lymph entry in data set [3] is “very limited partitioning into lymph”.
In the case of `CCCCCCCCCCC(=O)O[C@H]1CC[C@H]2[C@@H]3CCC4=CC(=O)CC[C@]4(C)[C@H]3CC[C@]12C` [testosterone undecanoate], the “log P” value in data set [2] is 6.7. For the same compound, the FRL in data set [3] (drug with prominent first-pass metabolism in the liver, ref literature) is on record as 98.5%.
